Assay in all cases: preemergence treatment in the greenhouse, % damage
The subject of one data set is Glyc. max. It counts as in vivo, Glycine max. From the text:
(§1) The vessels employed were plastic flowerpots having a volume of 300 cm^3; the substrate was a sandy loam containing about 1.5% humus. The seeds of the test plants (see Table 1) were sown shallow, and separated according to species. In the case of Cyperus esculentus, pregerminated tubers were planted. In the preemergence treatment, the active ingredients were then immediately applied to the surface of the soil. They were suspended or emulsified in water as the vehicle, and sprayed through atomizing nozzles. After the agents had been applied, the vessels were lightly sprinkler-irrigated to set germination and growth going, and to activate the chemical agents. The vessels were then covered with transparent plastic hoods until the plants had taken root. This cover ensured uniform germination of the test plants (to the extent that this was not impaired by the chemicals), and prevented readily volatile substances from evaporating.
(§2) For postemergence treatment, the plants were first grown to a height of from 3 to 10 cm, depending on their habit, before treated. Hoods were not placed on the pots. The experiments were set up in the greenhouse, hotter areas (25° to 40° C.) being preferred for heat-loving species, and 15° to 30° C. for plants from moderate climates. The experiments were carried out for from 4 to 6 weeks. During this period the plants were tended and their reaction to the various treatments was assessed. The following tables contain the substances investigated, the application rates in kg/ha of active ingredient, and the test plant species. Assessments were made on a 0 to 100 scale, 0 denoting no damage or normal emergence, and 100 denoting no emergence or complete destruction of at least the visible plant parts.

A further data set has as its system Beta vulg. It counts as in vivo, Beta vulgaris.
Description: as §1, §2

A further data set concerns Bromus spp. It counts as in vivo.
Description: as §1, §2

For a further data set, the system named is Setaria spp. It counts as in vivo.
Description: as §1, §2

The next data set has as its system Alopec. myosur. It counts as in vivo.
Description: as §1, §2

For a further data set, the system named is Echin. c.g. It counts as in vivo.
Description: as §1, §2

In the next data set the test system is Matric. spp. The data set is classed as in vivo.
Description: as §1, §2

For the next data set, the system named is Amar. retro. It counts as in vivo.
Description: as §1, §2

Another data set relates to Sorgh. halep. It counts as in vivo.
Description: as §1, §2

In another data set the test system is Cyp. diff. It counts as in vivo.
Description: as §1, §2

`Cc1cnn(CN(C(=O)CCl)c2c(C)cccc2C)c1`: the “% damage” value is recorded as 0% in the data set with Glyc. max (0.5 kg/ha); 10% in the data set with Glyc. max (1.0 kg/ha); 0% in the data set with Beta vulg. (0.5 kg/ha); 0% in the data set on Beta vulg. (1.0 kg/ha); 95% with Bromus spp. (0.5 kg/ha); 95% in the data set on Bromus spp. (1.0 kg/ha). In addition, the “% damage” value in the data set on Setaria spp. (0.5 kg/ha) is 92%; in the data set on Setaria spp. (1.0 kg/ha) it was 100%; with Alopec. myosur. (0.5 kg/ha), 90%; in the data set with Alopec. myosur. (1.0 kg/ha), 95%; in the data set with Echin. c.g. (0.5 kg/ha), 98%; in the data set with Echin. c.g. (1.0 kg/ha), 98%. The “% damage” value in the data set on Matric. spp. (0.5 kg/ha) and in the data set on Matric. spp. (1.0 kg/ha) was 100% throughout.
In the case of `Cc1cccc(C)c1N(Cn1cc(Cl)cn1)C(=O)CCl`, the “% damage” value came out at 5% in the data set with Glyc. max (1.0 kg/ha); 20% in the data set on Glyc. max (2.0 kg/ha); 3% in the data set with Beta vulg. (1.0 kg/ha); 13% with Beta vulg. (2.0 kg/ha); 92% in the data set on Bromus spp. (1.0 kg/ha); 95% in the data set on Bromus spp. (2.0 kg/ha). Also, the “% damage” value in the data set on Setaria spp. (1.0 kg/ha) is 95%; in the data set on Setaria spp. (2.0 kg/ha), 100%; with Alopec. myosur. (1.0 kg/ha), 95%; in the data set on Alopec. myosur. (2.0 kg/ha), 100%; with Echin. c.g. (1.0 kg/ha), 100%; in the data set with Echin. c.g. (2.0 kg/ha), 100%. The “% damage” value was found to be 75% with Matric. spp. (1.0 kg/ha) and 80% with Matric. spp. (2.0 kg/ha).
Turning to `CCc1cccc(C)c1N(Cn1cc(Cl)cn1)C(=O)CCl`, the “% damage” value is on record as 0% in the data set with Beta vulg. (1.0 kg/ha); 90% with Bromus spp. (1.0 kg/ha); 85% in the data set on Setaria spp. (1.0 kg/ha); 90% in the data set with Alopec. myosur. (1.0 kg/ha); 100% in the data set with Echin. c.g. (1.0 kg/ha); 60% with Matric. spp. (1.0 kg/ha).
On to `CCc1cccc(C)c1N(Cn1cc(C)cn1)C(=O)CCl`, for which the “% damage” value with Echin. c.g. (3.0 kg/ha) turned out to be 100%.
As for `CC(C)c1ccccc1N(Cn1cccn1)C(=O)CCl` [Compound 4], the “% damage” value with Amar. retro. (2.0 kg/ha) is 95%; with Sorgh. halep. (2.0 kg/ha), 65%; in the data set with Cyp. diff. (2.0 kg/ha), 90%; in the data set with Setaria spp. (2.0 kg/ha) it was 90%; in the data set with Alopec. myosur. (2.0 kg/ha), 95%; in the data set on Echin. c.g. (2.0 kg/ha), 100%.
For the molecule `CCc1cccc(CC)c1N(Cn1cccn1)C(=O)CCl` [Compound 8], the “% damage” value was 95% in the data set with Amar. retro. (0.25 kg/ha), 85% in the data set with Sorgh. halep. (0.25 kg/ha) and 100% with Bromus spp. (0.25 kg/ha).
Consider `Cc1cccc(C(C)C)c1N(Cn1cccn1)C(=O)CCl` [Compound 9], for which the “% damage” value in the data set on Amar. retro. (2.0 kg/ha) is 100%; in the data set with Sorgh. halep. (2.0 kg/ha), 90%; with Cyp. diff. (2.0 kg/ha), 100%; with Setaria spp. (2.0 kg/ha), 100%; in the data set on Alopec. myosur. (2.0 kg/ha) it was 100%; with Echin. c.g. (2.0 kg/ha) it was 100%.
In the case of `CC(C)c1cccc(C(C)C)c1N(Cn1cccn1)C(=O)CCl` [Compound 11], the “% damage” value is 90% in the data set with Amar. retro. (2.0 kg/ha); 70% with Sorgh. halep. (2.0 kg/ha); 100% in the data set on Cyp. diff. (2.0 kg/ha); 80% in the data set with Setaria spp. (2.0 kg/ha); 90% in the data set on Alopec. myosur. (2.0 kg/ha); 100% with Echin. c.g. (2.0 kg/ha).
As to `Cc1cc(C)c(N(Cn2cccn2)C(=O)CCl)c(C)c1` [Compound 13], the “% damage” value in the data set on Amar. retro. (2.0 kg/ha) is on record as 100%; in the data set on Sorgh. halep. (2.0 kg/ha), 80%; in the data set on Cyp. diff. (2.0 kg/ha) it was 90%; in the data set with Setaria spp. (2.0 kg/ha), 90%; in the data set with Alopec. myosur. (2.0 kg/ha) it was 80%; in the data set on Echin. c.g. (2.0 kg/ha), 100%.
For `Cc1cccc(N(Cn2cccn2)C(=O)CCl)c1C` [Compound 17], the “% damage” value with Amar. retro. (2.0 kg/ha) is 90%; in the data set on Sorgh. halep. (2.0 kg/ha), 75%; in the data set on Cyp. diff. (2.0 kg/ha) it was 100%; in the data set on Setaria spp. (2.0 kg/ha), 90%; in the data set with Alopec. myosur. (2.0 kg/ha), 50%; in the data set with Echin. c.g. (2.0 kg/ha), 100%.
With `CCc1ccccc1N(Cn1nc(C)cc1C)C(=O)CCl` [Compound 36], the “% damage” value was determined as 95% with Amar. retro. (0.5 kg/ha); 95% in the data set on Amar. retro. (1.0 kg/ha); 40% with Sorgh. halep. (0.5 kg/ha); 40% with Sorgh. halep. (1.0 kg/ha); 90% with Setaria spp. (0.5 kg/ha); 95% in the data set with Setaria spp. (1.0 kg/ha). For the same molecule, the “% damage” value with Alopec. myosur. (0.5 kg/ha) stood at 90%; with Alopec. myosur. (1.0 kg/ha), 100%; in the data set on Echin. c.g. (0.5 kg/ha) it was 80%; with Echin. c.g. (1.0 kg/ha), 95%.
With `Cc1cc(C)n(CN(C(=O)CCl)c2ccccc2C(C)C)n1` [Compound 37], the “% damage” value in the data set on Amar. retro. (1.0 kg/ha) came to 100%; with Sorgh. halep. (1.0 kg/ha), 80%; in the data set on Cyp. diff. (1.0 kg/ha) it was 100%; with Setaria spp. (1.0 kg/ha) it was 100%; in the data set on Alopec. myosur. (1.0 kg/ha), 30%; in the data set with Echin. c.g. (1.0 kg/ha), 100%.
For the molecule `Cc1cc(C)n(CN(C(=O)CCl)c2c(C)cccc2C(C)C)n1` [Compound 42], the “% damage” value in the data set on Amar. retro. (1.0 kg/ha) is 100%; in the data set with Sorgh. halep. (1.0 kg/ha) it was 90%; with Cyp. diff. (1.0 kg/ha) it was 100%; in the data set on Setaria spp. (1.0 kg/ha) it was 100%; with Alopec. myosur. (1.0 kg/ha), 95%; in the data set on Echin. c.g. (1.0 kg/ha) it was 100%.
Take `Cc1cc(C)n(CN(C(=O)CCl)c2c(C(C)C)cccc2C(C)C)n1` [Compound 44]: the “% damage” value with Amar. retro. (2.0 kg/ha) was determined as 80%; in the data set on Sorgh. halep. (2.0 kg/ha), 40%; in the data set with Cyp. diff. (2.0 kg/ha), 100%; with Setaria spp. (2.0 kg/ha) it was 90%; in the data set with Alopec. myosur. (2.0 kg/ha), 80%; in the data set with Echin. c.g. (2.0 kg/ha), 90%.
As to `Cc1cc(C)c(N(Cn2nc(C)cc2C)C(=O)CCl)c(C)c1` [Compound 46], the “% damage” value with Amar. retro. (1.0 kg/ha) worked out at 90%; in the data set on Sorgh. halep. (1.0 kg/ha), 80%; in the data set with Cyp. diff. (1.0 kg/ha), 100%; in the data set with Setaria spp. (1.0 kg/ha), 100%; in the data set with Alopec. myosur. (1.0 kg/ha), 60%; in the data set with Echin. c.g. (1.0 kg/ha), 100%.
Regarding `Cc1cc(C)n(CN(C(=O)CCl)c2cccc(C)c2C)n1` [Compound 50], the “% damage” value is 100% in the data set on Amar. retro. (1.0 kg/ha); 70% in the data set on Sorgh. halep. (1.0 kg/ha); 100% in the data set with Cyp. diff. (1.0 kg/ha); 100% with Setaria spp. (1.0 kg/ha); 90% in the data set on Alopec. myosur. (1.0 kg/ha); 100% with Echin. c.g. (1.0 kg/ha).
Turning to `Cc1ccc(C)c(N(Cn2nc(C)cc2C)C(=O)CCl)c1` [Compound 52], the “% damage” value with Amar. retro. (2.0 kg/ha) is 100%; with Sorgh. halep. (2.0 kg/ha), 60%; in the data set on Cyp. diff. (2.0 kg/ha), 100%; with Setaria spp. (2.0 kg/ha), 90%; in the data set with Alopec. myosur. (2.0 kg/ha) it was 60%; with Echin. c.g. (2.0 kg/ha), 95%.
Consider `Cc1ccn(CN(C(=O)CCl)c2c(C)cccc2C)n1` [Compound 67], for which the “% damage” value stood at 100% in the data set on Amar. retro. (0.25 kg/ha), 95% in the data set with Sorgh. halep. (0.25 kg/ha) and 100% in the data set with Bromus spp. (0.25 kg/ha).
As for `CCc1cccc(CC)c1N(Cn1ccc(C)n1)C(=O)CCl` [Compound 70], the “% damage” value in the data set with Amar. retro. (0.25 kg/ha) amounted to 100%; in the data set with Sorgh. halep. (0.25 kg/ha), 75%; in the data set with Bromus spp. (0.25 kg/ha) it was 100%.
Regarding `CCc1cccc(CC)c1N(Cn1nc(C)c(Cl)c1C)C(=O)CCl` [Compound 108], the “% damage” value with Amar. retro. (2.0 kg/ha) is 100%; in the data set on Sorgh. halep. (2.0 kg/ha), 60%; in the data set on Cyp. diff. (2.0 kg/ha) it was 100%; in the data set with Setaria spp. (2.0 kg/ha), 90%; in the data set on Alopec. myosur. (2.0 kg/ha) it was 70%; in the data set on Echin. c.g. (2.0 kg/ha) it was 100%.
As to `Cc1cccc(C(C)C)c1N(Cn1cncn1)C(=O)CCl` [Compound 131], the “% damage” value was found to be 80% with Amar. retro. (2.0 kg/ha); 80% with Sorgh. halep. (2.0 kg/ha); 100% with Cyp. diff. (2.0 kg/ha); 100% with Setaria spp. (2.0 kg/ha); 70% with Alopec. myosur. (2.0 kg/ha); 100% in the data set with Echin. c.g. (2.0 kg/ha).
For `Cc1cccc(N(Cn2cncn2)C(=O)CCl)c1C` [Compound 139], the “% damage” value in the data set on Amar. retro. (2.0 kg/ha) was found to be 40%; in the data set on Sorgh. halep. (2.0 kg/ha), 50%; in the data set on Cyp. diff. (2.0 kg/ha) it was 90%; in the data set on Setaria spp. (2.0 kg/ha) it was 30%; with Alopec. myosur. (2.0 kg/ha), 70%; in the data set with Echin. c.g. (2.0 kg/ha), 90%.
As to `CCc1cccc(CC)c1N(Cn1nc(C)nc1C)C(=O)CCl` [Compound 162], the “% damage” value stood at 100% in the data set on Amar. retro. (2.0 kg/ha); 95% in the data set with Sorgh. halep. (2.0 kg/ha); 100% with Cyp. diff. (2.0 kg/ha); 100% in the data set with Setaria spp. (2.0 kg/ha); 95% in the data set with Alopec. myosur. (2.0 kg/ha); 100% in the data set with Echin. c.g. (2.0 kg/ha).
